In the supplement of paper PMC11061612:

Assays:
769-P (Kidney Carcinoma) = experiment: Bliss excess, mean over the matrix (fraction); higher = more synergy
Method in brief: (§1)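 After 24 hours at 37°C and 5% CO2 in 1536-well plates, cells in DMEM/F12 or RPMI plus 10% FBS received two-drug dose matrices for 72 hours. Viability came from CellTiter-Glo 2.0 luminescence and was scaled as inhibition, anchored at 0 by vehicle wells and at 1 by blank wells. Combination Emax is taken as the second-highest inhibition in the matrix, and Bliss excess as the observed combination effect less EA + EB − EA·EB, with EA and EB the single-agent effects.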

EB2 (Burkitt's Lymphoma) = experiment: as above
Method in brief: as §1

EW-7 (Ewing's Sarcoma) = experiment: as above
Method in brief: as §1

IM-9 (Non-Cancerous) = experiment: as above
Method in brief: as §1

[1] = system: JHH-2 (Hepatocellular Carcinoma); experiment: as above
Method in brief: as §1

[2] = system: KYSE-220 (Esophageal Squamous Cell Carcinoma); experiment: as above
Method in brief: as §1

[3] = system: NCI-H1703 (Squamous Cell Lung Carcinoma); experiment: as above
Method in brief: as §1

A204 (Rhabdomyosarcoma) = experiment: combination Emax (second highest fraction inhibited in the dose matrix, 72 h); higher = more inhibition; extreme values may be limits of the assay
Method in brief: as §1

AU565 (Breast Carcinoma) = experiment: as above
Method in brief: as §1

[4] = system: CA46 (Burkitt's Lymphoma); experiment: as above
Method in brief: as §1

[5] = system: CAL-27 (Oral Cavity Carcinoma); experiment: as above
Method in brief: as §1

[6] = system: CESS (Acute Myeloid Leukemia); experiment: as above
Method in brief: as §1

[7] = system: DU-4475 (Breast Carcinoma); experiment: as above
Method in brief: as §1

[8] = system: G-402 (Other Solid Carcinomas); experiment: as above
Method in brief: as §1

[9] = system: GA-10 (Burkitt's Lymphoma); experiment: as above
Method in brief: as §1

[10] = system: HT55 (Colorectal Carcinoma); experiment: as above
Method in brief: as §1

[11] = system: JIMT-1 (Breast Carcinoma); experiment: as above
Method in brief: as §1

[12] = system: JVM-2 (B-Cell Non-Hodgkin's Lymphoma); experiment: as above
Method in brief: as §1

[13] = system: TE-10 (Esophageal Squamous Cell Carcinoma); experiment: as above
Method in brief: as §1

[14] = system: huH-1 (Hepatocellular Carcinoma); experiment: as above
Method in brief: as §1
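Throughout, for Bliss excess, mean over the matrix: after 72 h of two-drug dosing.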

## CN(CCO)CC[C@H](CSc1ccccc1)Nc1ccc(S(=O)(=O)NC(=O)c2ccc(N3CCC([C@@H](O)c4ccccc4-c4ccc(Cl)cc4)CC3)cc2)cc1S(=O)(=O)C(F)(F)F [AZD4320] + Cc1cc2ncnn2cc1Nc1ncc2c(n1)n(C1CCOCC1)c(=O)n2C [AZD7648] (first compound max 1 µM, 7x7, partner max 10 µM)
769-P (Kidney Carcinoma)
  Bliss excess: -0.0572
EB2 (Burkitt's Lymphoma)
  Bliss excess: 0.007
EW-7 (Ewing's Sarcoma)
  Bliss excess: 0.0633
IM-9 (Non-Cancerous)
  Bliss excess: 0.0473
[1]
  Bliss excess: -0.02
[2]
  Bliss excess: -0.0165
[3]
  Bliss excess: -0.0096
A204 (Rhabdomyosarcoma)
  combination Emax: 0.273
AU565 (Breast Carcinoma)
  combination Emax: 0.327
[4]
  combination Emax: 0.306
[5]
  combination Emax: 0.0955
[6]
  combination Emax: 0.566
[7]
  combination Emax: 0.916
[8]
  combination Emax: 0.475
[9]
  combination Emax: 0.643
[10]
  combination Emax: 0.196
[11]
  combination Emax: 0.225
[12]
  combination Emax: 0.642
[13]
  combination Emax: 0.202
[14]
  combination Emax: 0.127
